Source: PubChem BioAssay AID330 (DTP/NCI, 2004)
“And” between values parts separate entries of the source, which are not always exact repeats. Equal entries are not always repeated. Toxic doses and inconclusive results are not listed.

Test system: P388 leukemia ip, CD2F1 mice, survival T/C
Assay: NCI In Vivo Anticancer Drug Screen. Data for tumor model P388 Leukemia (intraperitoneal) in CD2F1 (CDF1) mice
Conditions: endpoint: median survival time, higher = longer survival
Procedure, shortened: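 Mice carrying the transplanted tumor received test compound or vehicle. Survival was recorded in each group, and the value is the treated-group measurement divided by that of the vehicle-treated control group.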

[1] = dose: 100.0 mg/kg/injection, schedule: Q04DX002 (ip), vehicle: saline with Tween-80
[2] = dose: 200.0 mg/kg/injection, schedule: Q04DX002 (ip), vehicle: saline with Tween-80
[3] = dose: 400.0 mg/kg/injection, schedule: Q04DX002 (ip), vehicle: saline with Tween-80
[4] = dose: 12.5 mg/kg/injection, schedule: Q01DX005 (ip), vehicle: Klucel (hydroxypropylcellulose) (HPC)
[5] = dose: 25.0 mg/kg/injection, schedule: Q01DX005 (ip), vehicle: Klucel (hydroxypropylcellulose) (HPC)
[6] = dose: 50.0 mg/kg/injection, schedule: Q01DX005 (ip), vehicle: Klucel (hydroxypropylcellulose) (HPC)
[7] = dose: 100.0 mg/kg/injection, schedule: Q01DX005 (ip), vehicle: Klucel (hydroxypropylcellulose) (HPC)
[8] = dose: 50.0 mg/kg/injection, schedule: Q01DX009 (ip), vehicle: Klucel (hydroxypropylcellulose) (HPC)
[9] = dose: 100.0 mg/kg/injection, schedule: Q01DX009 (ip), vehicle: Klucel (hydroxypropylcellulose) (HPC)
[10] = dose: 200.0 mg/kg/injection, schedule: Q01DX009 (ip), vehicle: Klucel (hydroxypropylcellulose) (HPC)
[11] = dose: 50.0 mg/kg/injection, schedule: Q01DX005 (ip), vehicle: saline with Tween-80
[12] = dose: 100.0 mg/kg/injection, schedule: Q01DX005 (ip), vehicle: saline with Tween-80
[13] = dose: 200.0 mg/kg/injection, schedule: Q01DX005 (ip), vehicle: saline with Tween-80
[14] = dose: 25.0 mg/kg/injection, schedule: Q01DX009 (ip), vehicle: Klucel (hydroxypropylcellulose) (HPC)
[15] = dose: 25.0 mg/kg/injection, schedule: Q04DX002 (ip), vehicle: saline with Tween-80
[16] = dose: 50.0 mg/kg/injection, schedule: Q04DX002 (ip), vehicle: saline with Tween-80

COCNC(=S)c1cc(C(=S)NCOC)c(C(=O)NC(C)(C)C)nc1C(=O)NC(C)(C)C
T/C [1]: 92 % of control | T/C [2]: 98 % of control | T/C [3]: 93 % of control

[O-][n+]1c2ccccc2cc2c1c1ccccc1n2O
T/C [4]: 113 % of control | T/C [5]: 107 % of control | T/C [6]: 106 % of control and 93 % of control

CN(C)CCSc1cccc2c1C(=O)c1cccc(SCCN(C)C)c1C2=O
T/C (dose: 0.78 mg/kg/injection, schedule: Q01DX009 (ip), vehicle: saline): 89 % of control | T/C (dose: 1.56 mg/kg/injection, schedule: Q01DX009 (ip), vehicle: saline): 90 % of control | T/C (dose: 3.13 mg/kg/injection, schedule: Q01DX009 (ip), vehicle: saline): 98 % of control | T/C (dose: 3.13 mg/kg/injection, schedule: Q01DX009 (ip), vehicle: water): 105 % of control and 98 % of control | T/C (dose: 6.25 mg/kg/injection, schedule: Q01DX009 (ip), vehicle: saline): 86 % of control | T/C (dose: 6.25 mg/kg/injection, schedule: Q01DX009 (ip), vehicle: water): 99 % of control and 100 % of control | T/C (dose: 12.5 mg/kg/injection, schedule: Q01DX009 (ip), vehicle: saline): 121 % of control | T/C (dose: 12.5 mg/kg/injection, schedule: Q01DX009 (ip), vehicle: water): 101 % of control and 90 % of control | T/C (dose: 25.0 mg/kg/injection, schedule: Q01DX009 (ip), vehicle: water): 100 % of control and 92 % of control | T/C (dose: 50.0 mg/kg/injection, schedule: Q01DX009 (ip), vehicle: water): 90 % of control

Cc1cccc(N2C(=O)C=C(NCc3nc4ccccc4[nH]3)C2c2ccccc2)c1 (stereo not given)
T/C [6]: 104 % of control | T/C [7]: 100 % of control | T/C (dose: 200.0 mg/kg/injection, schedule: Q01DX005 (ip), vehicle: Klucel (hydroxypropylcellulose) (HPC)): 100 % of control

COCN1C(=O)CN=C(c2ccccc2)c2cc([N+](=O)[O-])ccc21
T/C [8]: 100 % of control | T/C [9]: 101 % of control | T/C [10]: 98 % of control

O=[N+]([O-])c1ccc(-c2ncc(-c3ccc(Br)cc3)o2)cc1
T/C (dose: 60.0 mg/kg/injection, schedule: Q01DX005 (ip), vehicle: Klucel (hydroxypropylcellulose) (HPC)): 108 % of control | T/C (dose: 120.0 mg/kg/injection, schedule: Q01DX005 (ip), vehicle: Klucel (hydroxypropylcellulose) (HPC)): 107 % of control | T/C (dose: 240.0 mg/kg/injection, schedule: Q01DX005 (ip), vehicle: Klucel (hydroxypropylcellulose) (HPC)): 110 % of control

O=Cc1c2cnc(c1O)CSCc1ccc(cc1)CSC2
T/C [11]: 104 % of control | T/C [12]: 110 % of control | T/C [13]: 113 % of control

COc1ccc2c(c1)CN(CCc1ccc([N+](=O)[O-])cc1)CO2
T/C [11]: 96 % of control | T/C [12]: 94 % of control | T/C [13]: 96 % of control

[CH3][Sn]([CH3])([n]1cnc(N)nc1=O)[n]1cnc(N)nc1=O
T/C (dose: 6.25 mg/kg/injection, schedule: Q01DX005 (ip), vehicle: Klucel (hydroxypropylcellulose) (HPC)): 108 % of control | T/C [4]: 120 % of control and 90 % of control | T/C [5]: 112 % of control and 113 % of control | T/C [6]: 105 % of control and 118 % of control

S=C(Nc1ccc(Br)c(Cl)c1)SCc1ccc2c(c1)OCO2
T/C [14]: 121 % of control | T/C [8]: 107 % of control | T/C (dose: 50.0 mg/kg/injection, schedule: Q01DX009 (ip), vehicle: suspension in saline): 105 % of control | T/C [9]: 123 % of control | T/C (dose: 100.0 mg/kg/injection, schedule: Q01DX009 (ip), vehicle: suspension in saline): 104 % of control | T/C (dose: 200.0 mg/kg/injection, schedule: Q01DX009 (ip), vehicle: suspension in saline): 116 % of control

O=C1c2cc(Br)ccc2OC2CCON12 (stereo not given)
T/C [8]: 108 % of control | T/C [9]: 107 % of control | T/C [10]: 94 % of control

COc1ccc2c(c1)[C@@H](NC(C)=O)CCc1cc(OC)c(OC)c(OC)c1-2
T/C (dose: 0.25 mg/kg/injection, schedule: Q01DX005 (ip), vehicle: saline): 100 % of control and 108 % of control | T/C (dose: 0.5 mg/kg/injection, schedule: Q01DX005 (ip), vehicle: saline): 102 % of control and 105 % of control | T/C (dose: 1.0 mg/kg/injection, schedule: Q01DX005 (ip), vehicle: saline): 104 % of control and 108 % of control | T/C (dose: 2.0 mg/kg/injection, schedule: Q01DX005 (ip), vehicle: saline): 110 % of control and 96 % of control | T/C (dose: 4.0 mg/kg/injection, schedule: Q01DX005 (ip), vehicle: saline): 98 % of control and 108 % of control

Cc1ccc(S(=O)(=O)C(=S)N(C)N(C)C)cc1
T/C (dose: 12.5 mg/kg/injection, schedule: Q01DX009 (ip), vehicle: Klucel (hydroxypropylcellulose) (HPC)): 115 % of control | T/C [14]: 117 % of control

CCCCCCNP(=O)(N1CC1)N1CC1
T/C (dose: 3.13 mg/kg/injection, schedule: Q04DX003 (ip), vehicle: saline): 104 % of control | T/C (dose: 10.0 mg/kg/injection, schedule: Q01DX009 (ip), vehicle: saline): 177 % of control | T/C (dose: 12.5 mg/kg/injection, schedule: Q04DX003 (ip), vehicle: saline with Tween-80): 159 % of control | T/C (dose: 20.0 mg/kg/injection, schedule: Q01DX009 (ip), vehicle: saline): 227 % of control | T/C (dose: 25.0 mg/kg/injection, schedule: Q04DX003 (ip), vehicle: saline with Tween-80): 218 % of control

Cc1cccc(N=C(C2=C(O)c3ccccc3C2=O)c2ccccc2)c1
T/C [15]: 100 % of control | T/C [16]: 97 % of control | T/C [1]: 98 % of control | T/C [2]: 92 % of control | T/C [3]: 97 % of control

O=S(=O)(Cc1cccs1)c1ncc(Br)cn1
T/C [4]: 106 % of control | T/C [5]: 106 % of control | T/C [6]: 111 % of control and 113 % of control | T/C [7]: 117 % of control

CCOC(=O)CCN1CC=CCC1
T/C (dose: 50.0 mg/kg/injection, schedule: Q01DX005 (ip), vehicle: saline): 105 % of control | T/C (dose: 100.0 mg/kg/injection, schedule: Q01DX005 (ip), vehicle: saline): 102 % of control | T/C (dose: 200.0 mg/kg/injection, schedule: Q01DX005 (ip), vehicle: saline): 102 % of control

CCCN(CCC)c1nnc([N+](=O)[O-])s1
T/C (dose: 50.0 mg/kg/injection, schedule: Q01DX001 (ip), vehicle: other): 104 % of control | T/C (dose: 100.0 mg/kg/injection, schedule: Q01DX001 (ip), vehicle: other): 100 % of control | T/C (dose: 200.0 mg/kg/injection, schedule: Q01DX001 (ip), vehicle: other): 104 % of control

CC(C)=CCC/C(C)=C/COc1cc(O)c2c(c1)C(=O)c1cc(C)cc(O)c1C2=O
T/C (dose: 5.0 mg/kg/injection, schedule: Q01DX009 (ip), vehicle: DMSO): 100 % of control | T/C (dose: 10.0 mg/kg/injection, schedule: Q01DX009 (ip), vehicle: DMSO): 97 % of control | T/C (dose: 20.0 mg/kg/injection, schedule: Q01DX009 (ip), vehicle: DMSO): 97 % of control

C=CC(C(=C)C(=O)OC)c1ccccc1 (stereo not given)
T/C (dose: 60.0 mg/kg/injection, schedule: Q01DX005 (ip), vehicle: saline): 100 % of control | T/C (dose: 120.0 mg/kg/injection, schedule: Q01DX005 (ip), vehicle: saline): 109 % of control | T/C (dose: 240.0 mg/kg/injection, schedule: Q01DX005 (ip), vehicle: saline): 103 % of control

CC(=O)c1ccc(Nc2cc(C)nc(N)n2)cc1
T/C (dose: 15.0 mg/kg/injection, schedule: Q01DX005 (ip), vehicle: saline with Tween-80): 103 % of control | T/C (dose: 30.0 mg/kg/injection, schedule: Q01DX005 (ip), vehicle: saline with Tween-80): 104 % of control | T/C (dose: 60.0 mg/kg/injection, schedule: Q01DX005 (ip), vehicle: saline with Tween-80): 100 % of control and 105 % of control | T/C [1]: 112 % of control | T/C [2]: 96 % of control | T/C [3]: 99 % of control

COc1cc(OC)c(NC(=O)CC2SC(N)=NC2=O)cc1Cl (stereo not given)
T/C [8]: 97 % of control | T/C [9]: 97 % of control

CCCCCCCN1CCS(=O)(=O)CC1
T/C [8]: 93 % of control | T/C [9]: 98 % of control | T/C [10]: 97 % of control

CCOC(=O)c1c(C)[nH]c(=O)c(C#N)c1NC1CCCCC1
T/C [15]: 98 % of control | T/C [16]: 100 % of control | T/C [1]: 92 % of control

O=C1C2C3CCC(C2C(=O)N1COP(=O)(O)O)C1C2C(=O)N(COP(=O)(O)O)C(=O)C2C31 (stereo not given)
T/C (dose: 40.0 mg/kg/injection, schedule: Q01DX009 (ip), vehicle: water): 103 % of control | T/C (dose: 80.0 mg/kg/injection, schedule: Q01DX009 (ip), vehicle: water): 105 % of control | T/C (dose: 160.0 mg/kg/injection, schedule: Q01DX009 (ip), vehicle: water): 105 % of control | T/C (dose: 320.0 mg/kg/injection, schedule: Q01DX009 (ip), vehicle: water): 124 % of control
